Common to all, as to type: biochemical
One experiment deals with T1, PDE4A1A (Homo sapiens, UniProt P27815).
T1 construct: purchased BPS 60040
Nature of the experiment: PDE4 inhibitory activity assay (FAM-cAMP enzymatic reaction), PDE4A1A. As to the method:
(§1) The compounds of the present disclosure were tested for their inhibitory activity (IC50 value) against PDE4A1A, PDE4B1, and PDE4D2.
(§2) Positive compound: Trequinsin (Sigma, Cat No. T20S7).
(§3) Instrument: Wallac Victor Muti-lable counter (Pekin Elmer) Steps of assay:
(§4) PDE enzymatic reaction; • 1) PDE was dissolved in 1× reaction solution to prepare 2× enzyme solution; • 2) FAM-cAMP was dissolved in 1× reaction solution to prepare 2× substrate solution; • 3) Corresponding volume of the compound in DMSO was transferred to the reaction plate through Echo 550; • 4) 2× enzyme solution was added into the corresponding wells of the reaction plate and incubated with the compound solution for 15 minutes at room temperature; • 5) 2× substrate solution was added into the corresponding well of the reaction plate to initiate the reaction; • 6) After the reaction plate was incubated at room temperature for 30 min, the reaction was terminated by adding reaction stopping solution. The reaction plate was incubated at room temperature for another 60 minutes;
(§5) Inhibition rates were calculated with Excel; and IC50 for each compound was calculated with Graphpad prism.

The target in the next experiment is T2, PDE4B1 (Homo sapiens, UniProt Q07343).
T2 construct: purchased BPS 60041
T2 sequence (Q07343 whole entry): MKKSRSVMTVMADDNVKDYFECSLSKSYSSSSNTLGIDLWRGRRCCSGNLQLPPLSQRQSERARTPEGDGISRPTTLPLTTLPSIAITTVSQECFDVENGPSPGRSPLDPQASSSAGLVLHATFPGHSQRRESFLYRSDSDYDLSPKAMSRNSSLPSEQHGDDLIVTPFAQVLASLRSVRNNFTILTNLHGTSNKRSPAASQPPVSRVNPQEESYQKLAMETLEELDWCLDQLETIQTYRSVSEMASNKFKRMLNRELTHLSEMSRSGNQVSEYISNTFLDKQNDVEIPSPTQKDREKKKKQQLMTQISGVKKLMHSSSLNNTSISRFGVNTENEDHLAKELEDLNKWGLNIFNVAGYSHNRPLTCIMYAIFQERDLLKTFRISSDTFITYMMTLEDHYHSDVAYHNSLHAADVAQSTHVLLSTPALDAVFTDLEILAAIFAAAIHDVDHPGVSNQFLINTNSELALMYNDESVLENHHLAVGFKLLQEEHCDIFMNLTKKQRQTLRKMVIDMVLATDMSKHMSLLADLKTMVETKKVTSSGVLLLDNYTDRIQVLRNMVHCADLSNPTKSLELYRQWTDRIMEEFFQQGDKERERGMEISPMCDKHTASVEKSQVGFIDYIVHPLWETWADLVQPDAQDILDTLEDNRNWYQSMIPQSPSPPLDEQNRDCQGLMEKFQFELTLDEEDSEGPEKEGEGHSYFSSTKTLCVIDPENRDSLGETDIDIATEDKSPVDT
Put plainly: PDE4 inhibitory activity assay (FAM-cAMP enzymatic reaction), PDE4B1. As for the experimental part:
as §1, §2, §3, §4, §5

The target of another experiment is PDE4D2 (Homo sapiens, UniProt Q08499). Put plainly: PDE4 inhibitory activity assay (FAM-cAMP enzymatic reaction), PDE4D2. As for the experimental part:
as §1, §2, §3, §4, §5

Where [1] appears, read: compared with Apremilast and Example 11 of WO2018036470 (WX011).

Chain of PDE4D2 (Q08499 303-809): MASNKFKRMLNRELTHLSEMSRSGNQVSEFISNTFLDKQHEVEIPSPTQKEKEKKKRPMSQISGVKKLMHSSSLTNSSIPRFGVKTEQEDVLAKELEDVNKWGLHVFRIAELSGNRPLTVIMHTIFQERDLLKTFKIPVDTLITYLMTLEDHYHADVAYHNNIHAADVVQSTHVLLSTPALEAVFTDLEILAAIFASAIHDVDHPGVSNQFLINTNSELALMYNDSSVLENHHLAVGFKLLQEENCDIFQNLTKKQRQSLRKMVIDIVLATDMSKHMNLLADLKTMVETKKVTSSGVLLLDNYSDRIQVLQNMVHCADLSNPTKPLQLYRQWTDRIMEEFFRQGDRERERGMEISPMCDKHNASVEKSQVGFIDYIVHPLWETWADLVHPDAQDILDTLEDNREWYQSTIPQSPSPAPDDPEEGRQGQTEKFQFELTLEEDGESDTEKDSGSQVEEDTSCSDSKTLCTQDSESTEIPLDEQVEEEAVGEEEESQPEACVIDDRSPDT
T1 sequence (P27815 1-647 isoform P27815-4): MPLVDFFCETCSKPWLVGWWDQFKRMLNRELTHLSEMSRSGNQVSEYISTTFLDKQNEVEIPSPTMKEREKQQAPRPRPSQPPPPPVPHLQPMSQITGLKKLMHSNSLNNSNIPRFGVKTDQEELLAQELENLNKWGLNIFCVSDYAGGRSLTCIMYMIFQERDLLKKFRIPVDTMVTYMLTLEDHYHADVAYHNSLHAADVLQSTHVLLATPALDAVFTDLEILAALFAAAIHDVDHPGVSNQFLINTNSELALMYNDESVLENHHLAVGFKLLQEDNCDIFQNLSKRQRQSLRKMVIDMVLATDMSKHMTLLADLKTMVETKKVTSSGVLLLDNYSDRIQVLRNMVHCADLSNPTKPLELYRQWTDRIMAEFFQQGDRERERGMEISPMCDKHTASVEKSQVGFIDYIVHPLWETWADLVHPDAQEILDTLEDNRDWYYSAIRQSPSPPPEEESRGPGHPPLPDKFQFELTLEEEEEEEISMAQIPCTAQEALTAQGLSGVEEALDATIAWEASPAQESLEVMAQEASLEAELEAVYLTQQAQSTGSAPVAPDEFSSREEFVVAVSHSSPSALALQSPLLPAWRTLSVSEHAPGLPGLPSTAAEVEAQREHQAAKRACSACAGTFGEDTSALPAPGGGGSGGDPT

For the molecule `CCOc1nc([C@@H](CS(C)(=O)=O)n2c(=O)[nH]c3c(C)c(-c4ccccn4)cnc32)ccc1OC` [Ex. 17, (S)-3-(1-(6-ethoxy-5-methoxypyridin-2-yl)-2-(methylsulfonyl)ethyl)-7-methyl-6-(pyridin-2-yl)-1H-imidazo[4,5-b]pyridin-2(3H)-one], on PDE4A1A, the “PDE4 A1 inhibitory effect at 20 nM” value is listed as “+”. Also, on PDE4B1, the “PDE4 B1 inhibitory effect at 20 nM” value was “+”. Moreover, at PDE4D2, the “PDE4 D2 inhibitory effect at 20 nM” value is “=”.

On to `CCOc1nc([C@H](CS(C)(=O)=O)n2c(=O)[nH]c3c(C)c(-c4ccccn4)cnc32)ccc1OC` [Ex. 18, (R)-3-(1-(6-ethoxy-5-methoxypyridin-2-yl)-2-(methylsulfonyl)ethyl)-7-methyl-6-(pyridin-2-yl)-1H-imidazo[4,5-b]pyridin-2(3H)-one], for which, on PDE4A1A, the “PDE4 A1 inhibitory effect at 20 nM” value was “−”. The “PDE4 B1 inhibitory effect at 20 nM” value on PDE4B1 is reported as “−”. Also, the “PDE4 D2 inhibitory effect at 20 nM” value on PDE4D2 is listed as “−”.

As to `CCOc1nc([C@@H](CS(C)(=O)=O)n2c(=O)n(C)c3c(C)c(-c4ccccn4)cnc32)ccc1OC` [Ex. 19, (S)-3-(1-(6-ethoxy-5-methoxypyridin-2-yl)-2-(methylsulfonyl)ethyl)-1,7-dimethyl-6-(pyridin-2-yl)-1H-imidazo[4,5-b]pyridin-2(3H)-one], the “PDE4 A1 inhibitory effect at 20 nM” value at PDE4A1A is recorded as “+”. Besides, the “PDE4 B1 inhibitory effect at 20 nM” value at PDE4B1 is listed as “+”. For the same molecule, at PDE4D2, the “PDE4 D2 inhibitory effect at 20 nM” value is reported as “+”.

On to `CCOc1nc([C@@H](CS(C)(=O)=O)n2c(=O)n(CCOC)c3c(C)c(-c4ccccn4)cnc32)ccc1OC` [Ex. 20, (S)-3-(1-(6-ethoxy-5-methoxypyridin-2-yl)-2-(methylsulfonyl)ethyl)-1-(2-methoxyethyl)-7-methyl-6-(pyridin-2-yl)-1H-imidazo[4,5-b]pyridin-2(3H)-one], for which, on PDE4A1A, the “PDE4 A1 inhibitory effect at 20 nM” value was “+”. Moreover, the “PDE4 B1 inhibitory effect at 20 nM” value on PDE4B1 is “+”. Moreover, the “PDE4 D2 inhibitory effect at 20 nM” value on PDE4D2 is listed as “+”.

In the case of `CCOc1nc([C@H](CS(C)(=O)=O)n2c(=O)n(C)c3c(C)c(-c4ccccc4F)cnc32)ccc1OC` [Ex. 22], the “PDE4 A1 inhibitory effect at 20 nM” value at PDE4A1A is listed as “−”. Moreover, the “PDE4 B1 inhibitory effect at 20 nM” value at PDE4B1 is “−”. In addition, the “PDE4 D2 inhibitory effect at 20 nM” value at PDE4D2 was “−”.

Take `CCOc1nc([C@@H](CS(C)(=O)=O)n2c(=O)[nH]c3c(C)c(-c4c(F)cccc4F)cnc32)ccc1OC` [Ex. 23, (S)-6-(2,6-difluorophenyl)-3-(1-(6-ethoxy-5-methoxypyridin-2-yl)-2-(methylsulfonyl)ethyl)-7-methyl-1H-imidazo[4,5-b]pyridin-2(3H)-one]: the “PDE4 A1 inhibitory effect at 20 nM” value at PDE4A1A is recorded as “+”. Besides, the “PDE4 B1 inhibitory effect at 20 nM” value on PDE4B1 is “+”. Also, at PDE4D2, the “PDE4 D2 inhibitory effect at 20 nM” value is reported as “+”.

As to `CCOc1nc([C@H](CS(C)(=O)=O)n2c(=O)[nH]c3c(C)c(-c4c(F)cccc4F)cnc32)ccc1OC` [Ex. 24, (R)-6-(2,6-difluorophenyl)-3-(1-(6-ethoxy-5-methoxypyridin-2-yl)-2-(methylsulfonyl)ethyl)-7-methyl-1H-imidazo[4,5-b]pyridin-2(3H)-one], the “PDE4 A1 inhibitory effect at 20 nM” value at PDE4A1A was “−”. The “PDE4 B1 inhibitory effect at 20 nM” value at PDE4B1 was “−”. Besides, the “PDE4 D2 inhibitory effect at 20 nM” value on PDE4D2 was “−”.

Take `CCOc1nc([C@@H](CS(C)(=O)=O)n2c(=O)[nH]c3c(C)c(-c4cccc(F)c4F)cnc32)ccc1OC` [Ex. 25, (S)-6-(2,3-difluorophenyl)-3-(1-(6-ethoxy-5-methoxypyridin-2-yl)-2-(methylsulfonyl)ethyl)-7-methyl-1H-imidazo[4,5-b]pyridin-2(3H)-one]: the “PDE4 A1 inhibitory effect at 20 nM” value on PDE4A1A was “+”. The “PDE4 B1 inhibitory effect at 20 nM” value at PDE4B1 is reported as “+”. Also, at PDE4D2, the “PDE4 D2 inhibitory effect at 20 nM” value is reported as “+”.

`CCOc1nc([C@H](CS(C)(=O)=O)n2c(=O)[nH]c3c(C)c(-c4cccc(F)c4F)cnc32)ccc1OC` [Ex. 26, (R)-6-(2,3-difluorophenyl)-3-(1-(6-ethoxy-5-methoxypyridin-2-yl)-2-(methylsulfonyl)ethyl)-7-methyl-1H-imidazo[4,5-b]pyridin-2(3H)-one]: the “PDE4 A1 inhibitory effect at 20 nM” value on PDE4A1A was “−”. Moreover, at PDE4B1, the “PDE4 B1 inhibitory effect at 20 nM” value is on record as “−”. For the same molecule, the “PDE4 D2 inhibitory effect at 20 nM” value at PDE4D2 was “−”.

For the molecule `CCOc1nc([C@@H](CS(C)(=O)=O)n2c(=O)[nH]c3c(C)c(-c4ccc(F)cc4F)cnc32)ccc1OC` [Ex. 28, (S)-6-(2,4-difluorophenyl)-3-(1-(6-ethoxy-5-methoxypyridin-2-yl)-2-(methylsulfonyl)ethyl)-7-methyl-1H-imidazo[4,5-b]pyridin-2(3H)-one], on PDE4A1A, the “PDE4 A1 inhibitory effect at 20 nM” value is recorded as “+”. The “PDE4 B1 inhibitory effect at 20 nM” value on PDE4B1 is reported as “+”. For the same molecule, the “PDE4 D2 inhibitory effect at 20 nM” value at PDE4D2 is listed as “+”.

For the molecule `CCOc1nc([C@@H](CS(C)(=O)=O)n2c(=O)[nH]c3c(C)c(-c4cc(F)c(F)cc4F)cnc32)ccc1OC` [Ex. 29, (S)-6-(2,4,5-trifluorophenyl)-3-(1-(6-ethoxy-5-methoxypyridin-2-yl)-2-(methylsulfonyl)ethyl)-7-methyl-1H-imidazo[4,5-b]pyridin-2(3H)-one], the “PDE4 A1 inhibitory effect at 20 nM” value on PDE4A1A is given as “+”. Further, the “PDE4 B1 inhibitory effect at 20 nM” value at PDE4B1 was “+”. Moreover, the “PDE4 D2 inhibitory effect at 20 nM” value at PDE4D2 is “+”.

Consider `CCOc1nc([C@H](CS(C)(=O)=O)n2c(=O)[nH]c3c(C)c(-c4cc(F)ccc4F)cnc32)ccc1OC` [Ex. 30, (R)-6-(2,5-difluorophenyl)-3-(1-(6-ethoxy-5-methoxypyridin-2-yl)-2-(methylsulfonyl)ethyl)-7-methyl-1H-imidazo[4,5-b]pyridin-2(3H)-one], for which the “PDE4 A1 inhibitory effect at 20 nM” value at PDE4A1A is reported as “−”. Besides, the “inhibitory activity against PDE4A1A compared with Apremilast and WX011” value against PDE4A1A (setting [1]) is recorded as “significantly enhanced inhibitory activity”. In addition, the “PDE4 B1 inhibitory effect at 20 nM” value on PDE4B1 is “−”. The “inhibitory activity against PDE4B1 compared with Apremilast and WX011” value against PDE4B1 (setting [1]) is “significantly enhanced inhibitory activity”. In addition, the “PDE4 D2 inhibitory effect at 20 nM” value on PDE4D2 is “−”. The “inhibitory activity against PDE4D2 compared with Apremilast and WX011” value on PDE4D2 (setting [1]) is recorded as “significantly enhanced inhibitory activity”.

As for `CCOc1nc([C@@H](CS(C)(=O)=O)n2c(=O)[nH]c3c(C)c(-c4cc(C)ccc4C)cnc32)ccc1OC` [Ex. 32, (S)-6-(2,5-dimethylphenyl)-3-(1-(6-ethoxy-5-methoxypyridin-2-yl)-2-(methylsulfonyl)ethyl)-7-methyl-1H-imidazo[4,5-b]pyridin-2(3H)-one], on PDE4A1A, the “PDE4 A1 inhibitory effect at 20 nM” value is “+”. Also, the “PDE4 B1 inhibitory effect at 20 nM” value at PDE4B1 is “+”. Moreover, the “PDE4 D2 inhibitory effect at 20 nM” value at PDE4D2 is listed as “+”.

Take `CCOc1nc([C@@H](CS(C)(=O)=O)n2c(=O)[nH]c3c(C)c(-c4cccc(C)c4C)cnc32)ccc1OC` [Ex. 33, (S)-6-(2,3-dimethylphenyl)-3-(1-(6-ethoxy-5-methoxypyridin-2-yl)-2-(methylsulfonyl)ethyl)-7-methyl-1H-imidazo[4,5-b]pyridin-2(3H)-one]: at PDE4A1A, the “PDE4 A1 inhibitory effect at 20 nM” value was “+”. Further, on PDE4B1, the “PDE4 B1 inhibitory effect at 20 nM” value was “+”. At PDE4D2, the “PDE4 D2 inhibitory effect at 20 nM” value is “+”.

`CCOc1nc([C@@H](CS(C)(=O)=O)n2c(=O)[nH]c3c(C)c(-c4c(C)cccc4C)cnc32)ccc1OC` [Ex. 34, (S)-6-(2,6-dimethylphenyl)-3-(1-(6-ethoxy-5-methoxypyridin-2-yl)-2-(methylsulfonyl)ethyl)-7-methyl-1H-imidazo[4,5-b]pyridin-2(3H)-one]: on PDE4A1A, the “PDE4 A1 inhibitory effect at 20 nM” value was “+”. In addition, at PDE4B1, the “PDE4 B1 inhibitory effect at 20 nM” value is given as “+”. Also, the “PDE4 D2 inhibitory effect at 20 nM” value on PDE4D2 was “+”.

`CCOc1nc([C@@H](CS(C)(=O)=O)n2c(=O)[nH]c3c(C)c(-c4cc(F)ccc4C)cnc32)ccc1OC` [Ex. 36, (S)-6-(5-fluoro-2-methylphenyl)-3-(1-(6-ethoxy-5-methoxypyridin-2-yl)-2-(methylsulfonyl)ethyl)-7-methyl-1H-imidazo[4,5-b]pyridin-2(3H)-one]: the “PDE4 A1 inhibitory effect at 20 nM” value on PDE4A1A is listed as “+”. In addition, the “PDE4 B1 inhibitory effect at 20 nM” value at PDE4B1 is reported as “+”. Further, the “PDE4 D2 inhibitory effect at 20 nM” value on PDE4D2 was “+”.

As for `CCOc1nc([C@@H](CS(C)(=O)=O)n2c(=O)[nH]c3c(C)c(-c4cccc(F)c4C)cnc32)ccc1OC` [Ex. 37, (S)-6-(3-fluoro-2-methylphenyl)-3-(1-(6-ethoxy-5-methoxypyridin-2-yl)-2-(methylsulfonyl)ethyl)-7-methyl-1H-imidazo[4,5-b]pyridin-2(3H)-one], at PDE4A1A, the “PDE4 A1 inhibitory effect at 20 nM” value was “+”. At PDE4B1, the “PDE4 B1 inhibitory effect at 20 nM” value was “+”. On PDE4D2, the “PDE4 D2 inhibitory effect at 20 nM” value was “+”.

With `CCOc1nc([C@@H](CS(C)(=O)=O)n2c(=O)[nH]c3c(C)c(-c4cc(C)ccc4F)cnc32)ccc1OC` [Ex. 38, (S)-6-(2-fluoro-5-methylphenyl)-3-(1-(6-ethoxy-5-methoxypyridin-2-yl)-2-(methylsulfonyl)ethyl)-7-methyl-1H-imidazo[4,5-b]pyridin-2(3H)-one], the “PDE4 A1 inhibitory effect at 20 nM” value at PDE4A1A is given as “+”. Further, the “PDE4 B1 inhibitory effect at 20 nM” value at PDE4B1 is reported as “+”. The “PDE4 D2 inhibitory effect at 20 nM” value at PDE4D2 is listed as “+”.

As for `CCOc1nc([C@@H](CS(C)(=O)=O)n2c(=O)[nH]c3c(C)c(-c4cccc(C)c4F)cnc32)ccc1OC` [Ex. 39, (S)-6-(2-fluoro-3-methylphenyl)-3-(1-(6-ethoxy-5-methoxypyridin-2-yl)-2-(methylsulfonyl)ethyl)-7-methyl-1H-imidazo[4,5-b]pyridin-2(3H)-one], the “PDE4 A1 inhibitory effect at 20 nM” value on PDE4A1A is “+”. Further, the “PDE4 B1 inhibitory effect at 20 nM” value at PDE4B1 is recorded as “+”. The “PDE4 D2 inhibitory effect at 20 nM” value at PDE4D2 is on record as “+”.

For the origin of these results see patent publication US20230141101A1, “PDE4 INHIBITOR COMPOUND AND MEDICAL USE THEREOF” (Suzhou Longbotai Pharmaceuticals Co., Ltd., priority 2020, published 2023).
